The source of these data is publication PMC5564600 (Oncotarget, 2017).

Test in all cases: biochemical
Common to all, as to type: binding

Experiment [1] deals with T1, panel of 442 kinases (Homo sapiens, UniProt P00533).
T1 construct: purchased Ambit Biosciences (scanMAXX KINOMEscan)
As to conditions: EGFR; for remaining activity at 1 µM: read-out: % of control at 1 µM.

Experiment [2] deals with T2, panel of 442 kinases (Homo sapiens, UniProt P36896).
T2 construct: purchased Ambit Biosciences (scanMAXX KINOMEscan)
T2 sequence (P36896 24-505): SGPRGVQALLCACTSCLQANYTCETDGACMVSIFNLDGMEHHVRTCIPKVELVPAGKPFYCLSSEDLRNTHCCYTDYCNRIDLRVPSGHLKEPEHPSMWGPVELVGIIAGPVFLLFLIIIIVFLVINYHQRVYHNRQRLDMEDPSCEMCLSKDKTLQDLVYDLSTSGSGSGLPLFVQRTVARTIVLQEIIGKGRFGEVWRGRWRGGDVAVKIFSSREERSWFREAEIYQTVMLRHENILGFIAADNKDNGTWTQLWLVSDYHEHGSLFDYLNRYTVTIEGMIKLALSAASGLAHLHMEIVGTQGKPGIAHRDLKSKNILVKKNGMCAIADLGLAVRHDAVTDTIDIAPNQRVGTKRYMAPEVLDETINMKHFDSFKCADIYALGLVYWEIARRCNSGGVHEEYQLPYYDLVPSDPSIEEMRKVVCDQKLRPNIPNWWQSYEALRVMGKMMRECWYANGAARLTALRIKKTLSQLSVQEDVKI
As to conditions: ACVR1B; for remaining activity at 1 µM: read-out: % of control at 1 µM.

In experiment [3] the target is T3, panel of 442 kinases (Homo sapiens, UniProt Q8IVH8).
T3 construct: purchased Ambit Biosciences (scanMAXX KINOMEscan)
T3 sequence (Q8IVH8 1-894): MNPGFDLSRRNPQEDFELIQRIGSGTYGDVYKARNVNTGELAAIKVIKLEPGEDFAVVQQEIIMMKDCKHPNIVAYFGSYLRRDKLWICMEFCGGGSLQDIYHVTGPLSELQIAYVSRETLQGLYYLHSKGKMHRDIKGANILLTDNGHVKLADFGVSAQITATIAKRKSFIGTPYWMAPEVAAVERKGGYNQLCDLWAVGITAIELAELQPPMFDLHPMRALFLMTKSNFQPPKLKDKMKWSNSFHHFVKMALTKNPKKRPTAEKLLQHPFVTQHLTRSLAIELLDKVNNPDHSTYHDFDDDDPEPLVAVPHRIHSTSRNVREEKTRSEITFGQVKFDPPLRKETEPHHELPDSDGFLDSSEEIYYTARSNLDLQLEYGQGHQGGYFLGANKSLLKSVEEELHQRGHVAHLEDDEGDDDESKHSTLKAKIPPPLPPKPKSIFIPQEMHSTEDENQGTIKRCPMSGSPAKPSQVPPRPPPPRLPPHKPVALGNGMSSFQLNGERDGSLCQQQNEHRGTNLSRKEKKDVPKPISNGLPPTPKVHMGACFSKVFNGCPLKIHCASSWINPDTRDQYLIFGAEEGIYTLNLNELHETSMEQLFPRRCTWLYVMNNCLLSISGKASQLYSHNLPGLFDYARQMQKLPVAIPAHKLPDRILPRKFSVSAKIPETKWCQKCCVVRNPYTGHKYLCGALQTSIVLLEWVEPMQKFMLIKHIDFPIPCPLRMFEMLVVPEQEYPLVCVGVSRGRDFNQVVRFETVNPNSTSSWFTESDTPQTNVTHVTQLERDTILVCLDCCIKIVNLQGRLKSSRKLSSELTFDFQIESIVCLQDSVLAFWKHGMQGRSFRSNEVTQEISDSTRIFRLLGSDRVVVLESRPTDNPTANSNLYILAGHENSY
As to conditions: kinase MAP4K3; for remaining activity at 1 µM: read-out: % of control at 1 µM.

Experiment [4] addresses T4, panel of 442 kinases (Homo sapiens, UniProt Q9Y616).
T4 construct: purchased Ambit Biosciences (scanMAXX KINOMEscan)
T4 sequence (Q9Y616 1-596): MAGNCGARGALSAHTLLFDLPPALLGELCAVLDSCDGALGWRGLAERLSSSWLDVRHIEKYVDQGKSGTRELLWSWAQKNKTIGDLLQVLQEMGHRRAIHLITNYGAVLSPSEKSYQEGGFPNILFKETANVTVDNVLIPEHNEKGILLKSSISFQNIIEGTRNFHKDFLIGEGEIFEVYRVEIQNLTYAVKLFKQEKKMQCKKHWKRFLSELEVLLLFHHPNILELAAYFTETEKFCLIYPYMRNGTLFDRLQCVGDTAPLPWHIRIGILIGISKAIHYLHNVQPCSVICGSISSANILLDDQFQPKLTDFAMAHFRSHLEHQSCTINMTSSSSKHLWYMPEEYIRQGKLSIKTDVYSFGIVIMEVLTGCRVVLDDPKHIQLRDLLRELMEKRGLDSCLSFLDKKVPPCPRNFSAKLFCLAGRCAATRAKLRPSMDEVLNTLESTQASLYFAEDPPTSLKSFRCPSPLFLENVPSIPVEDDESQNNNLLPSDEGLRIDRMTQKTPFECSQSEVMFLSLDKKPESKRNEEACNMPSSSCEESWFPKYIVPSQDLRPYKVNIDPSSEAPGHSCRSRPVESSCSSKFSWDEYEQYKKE
As to conditions: kinase IRAK3; for remaining activity at 1 µM: read-out: % of control at 1 µM.

Setting [5] is: 10 µM, read-out: % of control at 10 µM.

T1 sequence (P00533 25-1210): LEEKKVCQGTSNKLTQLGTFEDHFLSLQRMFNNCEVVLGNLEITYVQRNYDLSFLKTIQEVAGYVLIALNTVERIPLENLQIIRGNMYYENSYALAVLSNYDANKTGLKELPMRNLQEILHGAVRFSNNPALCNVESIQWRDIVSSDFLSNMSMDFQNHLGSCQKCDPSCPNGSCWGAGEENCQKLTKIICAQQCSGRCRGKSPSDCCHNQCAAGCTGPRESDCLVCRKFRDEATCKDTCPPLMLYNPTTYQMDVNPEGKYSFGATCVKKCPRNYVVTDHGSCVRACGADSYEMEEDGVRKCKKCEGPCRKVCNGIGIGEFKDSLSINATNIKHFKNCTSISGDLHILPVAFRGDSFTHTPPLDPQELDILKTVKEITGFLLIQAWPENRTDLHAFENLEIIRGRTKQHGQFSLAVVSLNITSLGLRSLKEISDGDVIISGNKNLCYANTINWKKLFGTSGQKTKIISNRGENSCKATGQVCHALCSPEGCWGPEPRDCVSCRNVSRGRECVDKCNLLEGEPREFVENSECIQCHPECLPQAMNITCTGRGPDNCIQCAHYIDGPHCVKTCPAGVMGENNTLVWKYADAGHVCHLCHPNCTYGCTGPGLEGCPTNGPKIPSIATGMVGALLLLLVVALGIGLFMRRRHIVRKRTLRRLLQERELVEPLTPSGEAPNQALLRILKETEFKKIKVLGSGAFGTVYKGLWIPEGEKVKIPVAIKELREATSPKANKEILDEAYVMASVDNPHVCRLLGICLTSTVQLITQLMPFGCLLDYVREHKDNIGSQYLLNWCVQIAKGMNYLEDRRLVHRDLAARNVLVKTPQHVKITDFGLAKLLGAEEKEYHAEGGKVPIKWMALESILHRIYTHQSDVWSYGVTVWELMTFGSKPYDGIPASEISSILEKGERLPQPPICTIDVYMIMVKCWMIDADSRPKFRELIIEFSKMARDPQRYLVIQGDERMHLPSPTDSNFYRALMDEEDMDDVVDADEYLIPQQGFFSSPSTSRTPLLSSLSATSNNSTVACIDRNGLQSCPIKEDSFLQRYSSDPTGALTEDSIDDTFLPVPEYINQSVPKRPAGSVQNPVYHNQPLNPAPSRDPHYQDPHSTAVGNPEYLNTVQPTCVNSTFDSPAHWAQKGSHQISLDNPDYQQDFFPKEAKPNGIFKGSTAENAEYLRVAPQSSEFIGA

Regarding `Nc1cc(C(F)(F)F)c(-c2cc(N3CCOCC3)nc(N3CCOCC3)n2)cn1` [Buparlisib], the remaining activity at 1 µM at panel of 442 kinases [1] was determined as 83%; on panel of 442 kinases [2], 87%; on panel of 442 kinases [3], 93%; on panel of 442 kinases [4] it was 95%. The remaining activity at 10 µM on panel of 442 kinases [1] (setting [5]) is 100%; at panel of 442 kinases [2] (setting [5]), 83%; at panel of 442 kinases [3] (setting [5]), 81%; at panel of 442 kinases [4] (setting [5]), 96%.

As to `Cn1c(=O)n(-c2ccc(C(C)(C)C#N)cc2)c2c3cc(-c4cnc5ccccc5c4)ccc3ncc21` [Dactolisib, 2-methyl-2-[4-(3-methyl-2-oxo-8-quinolin-3-yl-2,3-dihydroimidazo[4,5-c]quinolin-1-yl)-phenyl] propionitrile], the remaining activity at 1 µM amounted to 80% on panel of 442 kinases [1], 100% on panel of 442 kinases [2], 30% on panel of 442 kinases [3] and 50% on panel of 442 kinases [4].

Turning to `FC(F)c1nc2ccccc2n1-c1nc(N2CCOCC2)nc(N2CCOCC2)n1` [ZSTK474, 2-(difluoromethyl)-1-[4,6-di(4-morpholinyl)-1,3,5-triazin-2-yl]-1H-benzimidazole], the remaining activity at 1 µM is 94% at panel of 442 kinases [1], 60% on panel of 442 kinases [2], 87% on panel of 442 kinases [3] and 100% on panel of 442 kinases [4].

On to `COc1ncc(-c2ccc3nccc(-c4ccnnc4)c3c2)cc1NS(=O)(=O)c1ccc(F)cc1F` [Omipalisib], for which the remaining activity at 1 µM stood at 86% at panel of 442 kinases [1], 100% on panel of 442 kinases [2], 85% on panel of 442 kinases [3] and 26% on panel of 442 kinases [4].
